Measurements as given in patent publication USRE46511E1, “Fused pyrimidine derivatives for inhibition of tyrosine kinase activity” (HANMI SCIENCE CO., LTD., priority 2010, dated 2017).

Tests used:
[1] = system: HCC827 (EGFR DelE746_A750); assay: Inhibition test for growth of cancer cell expressing EGFR (SRB), HCC827; type: cell-based; settings: Homo sapiens, HCC827, 72 h, HCC827 cells, 72 hours, SRB; read-out: GI50 HCC827 EGFR DelE746_A750;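 note: cells in 96-well plates exposed to tenfold serial dilutions from 100 µM, fixed with trichloroacetic acid, SRB-stained, absorbance read at 540 nm, DMSO under 1%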
[2] = system: NCI-H1975 (EGFR L858R/T790M); assay: Inhibition test for growth of cancer cell expressing EGFR (MTS), NCI-H1975; type: cell-based; settings: Homo sapiens; NCI-H1975 cells, 48 hours, MTS; read-out: GI50 NCI-H1975 EGFR L858R/T790M

| SMILES | GI50 [1] [µM] | GI50 [2] [µM] |
| --- | --- | --- |
| C=CC(=O)Nc1cccc(Oc2nc(Nc3ccc(CCO)cc3)nc3ccsc23)c1 [Example 190] | < 0.05 | < 0.05 |
| C=CC(=O)Nc1cccc(Oc2nc(Nc3ccc(N4CCN(CCOC)CC4)cc3)nc3ccsc23)c1 [Example 17] | < 0.05 | < 0.05 |
| C=CC(=O)Nc1cccc(Nc2nc(Nc3ccc(N4CCN(C(C)C)CC4)cc3)nc3ccsc23)c1 [Example 208] | < 0.05 | < 0.05 |
| C=CC(=O)Nc1cccc(Oc2nc(Nc3ccc(OC4CCN(C)CC4)c(F)c3)nc3ccsc23)c1 [Example 136] | < 0.05 | < 0.05 |
| C=CC(=O)Nc1cccc(Oc2nc(Nc3ccc(OCCN4CCOCC4)c(OC)c3)nc3ccsc23)c1 [Example 116] | < 0.05 | < 0.05 |
| C=CC(=O)Nc1cccc(Oc2nc(Nc3ccc(N4CCC(N5CCOCC5)CC4)c(Cl)c3)nc3ccsc23)c1 [Example 139] | < 0.05 | < 0.05 |
| C=CC(=O)Nc1cccc(Oc2nc(Nc3ccc(N4CC(C)N(C)C(C)C4)cc3)nc3ccsc23)c1 (stereo not shown) [Example 27] | < 0.05 | < 0.05 |
| C=CC(=O)Nc1cccc(Oc2nc(Nc3ccc(NC(=O)N4CCN(C)CC4)cc3)nc3ccsc23)c1 [Example 172] | 0.05 to 0.1 | < 0.05 |
| C=CC(=O)Nc1cccc(Nc2nc(Nc3ccc(C4CCN(C)CC4)c(F)c3)nc3ccsc23)c1 [Example 216] | < 0.05 | < 0.05 |
| C=CC(=O)Nc1cccc(Oc2nc(Nc3ccc(CN4CCC(N(C)C)CC4)c(F)c3)nc3ccsc23)c1 [Example 196] | < 0.05 | 0.05 to 0.1 |
| C=CC(=O)Nc1cccc(Oc2nc(Nc3ccc(OCCOC)c(F)c3)nc3ccsc23)c1 [Example 131] | 0.05 to 0.1 | < 0.05 |
| C=CC(=O)Nc1cccc(Oc2nc(Nc3ccc(N4CCN(CCO)CC4)cn3)nc3ccsc23)c1 [Example 156] | < 0.05 | 0.05 to 0.1 |
| C=CC(=O)Nc1cccc(Oc2nc(Nc3ccc(C4CCN(C)CC4)cc3OC)nc3ccsc23)c1 [Example 114] | 0.05 to 0.1 | < 0.05 |
| C=CC(=O)Nc1cccc(Oc2nc(Nc3ccc(N4CCN(C(=O)CN(C)C)CC4)c(F)c3)nc3ccsc23)c1 [Example 119] | < 0.05 | < 0.05 |
| C=CC(=O)Nc1cccc(Oc2nc(Nc3ccc(CCN(C)C)cc3)nc3ccsc23)c1 [Example 191] | < 0.05 | < 0.05 |
| C=CC(=O)Nc1cccc(Oc2nc(Nc3ccc(OCCN4CCN(C)CC4)c(F)c3)nc3ccsc23)c1 [Example 134] | < 0.05 | < 0.05 |
| C=CC(=O)Nc1cccc(Oc2nc(Nc3ccc(N4CCN(S(=O)(=O)CC)CC4)c(F)c3)nc3ccsc23)c1 [Example 121] | 0.05 to 0.1 | < 0.05 |
| C=CC(=O)Nc1cccc(Oc2nc(Nc3ccc(N4CCN(CCO)CC4)cc3)nc3ccsc23)c1 [Example 18] | < 0.05 | < 0.05 |
| C=CC(=O)Nc1cccc(Oc2nc(Nc3ccc(S(=O)(=O)NC4CC4)cc3)nc3ccsc23)c1 [Example 71] | 0.05 to 0.1 | < 0.05 |
| C=CC(=O)Nc1cccc(Oc2nc(Nc3ccc(N4CC(C)OC(C)C4)c(F)c3)nc3ccsc23)c1 (stereo not shown) [Example 123] | 0.05 to 0.1 | 0.05 to 0.1 |
| C=CC(=O)Nc1cccc(Oc2nc(Nc3ccc(O)cc3)nc3ccsc23)c1 [Example 60] | 0.1 to 1 | 0.1 to 1 |

| SMILES | GI50 [1] [µM] | GI50 [2] [µM] |
| --- | --- | --- |
| C=CC(=O)Nc1cccc(Oc2nc(Nc3ccc(N4CCC(N(C)C)CC4)cc3)nc3ccsc23)c1 [Example 38] | < 0.05 | < 0.05 |
| C=CC(=O)Nc1cccc(Oc2nc(Nc3ccc(C(=O)OCCCN(C)C)cc3)nc3ccsc23)c1 [Example 93] | 0.05 to 0.1 | 0.05 to 0.1 |
| C=CC(=O)Nc1cccc(Oc2nc(Nc3ccc(CCN4CCCCC4)cc3)nc3ccsc23)c1 [Example 98] | < 0.05 | < 0.05 |
| C=CC(=O)Nc1cccc(Oc2nc(Nc3ccc(CN4CCN(C)CC4)c(F)c3)nc3ccsc23)c1 [Example 197] | < 0.05 | < 0.05 |
| C=CC(=O)Nc1cccc(Oc2nc(Nc3ccc(C(=O)N(C)C)c(Cl)c3)nc3ccsc23)c1 [Example 143] | 0.05 to 0.1 | < 0.05 |
| C=CC(=O)Nc1cccc(Oc2nc(Nc3ccc(CN4CCN(C5CCN(C)CC5)CC4)c(Cl)c3)nc3ccsc23)c1 [Example 202] | 0.05 to 0.1 | < 0.05 |
| C=CC(=O)Nc1cccc(Sc2nc(Nc3ccc(N4CCOCC4)c(F)c3)nc3ccsc23)c1 [Example 224] | < 0.05 | < 0.05 |
| C=CC(=O)Nc1cccc(Oc2nc(Nc3ccc(C(=O)N(C)C)cc3)nc3ccsc23)c1 [Example 84] | 0.05 to 0.1 | 0.05 to 0.1 |
| C=CC(=O)Nc1cccc(Oc2nc(Nc3ccc(-n4ccnc4)cc3)nc3ccsc23)c1 [Example 56] | 0.05 to 0.1 | < 0.05 |
| C=CC(=O)Nc1cccc(Nc2nc(Nc3ccc(OCCCN(C)C)cc3)nc3ccsc23)c1 [Example 212] | 0.05 to 0.1 | 0.05 to 0.1 |
| C=CC(=O)Nc1cccc(Oc2nc(Nc3ccc(N4CCC(N5CCCC5)CC4)c(F)c3)nc3ccsc23)c1 [Example 124] | < 0.05 | < 0.05 |
| C=CC(=O)Nc1cccc(Nc2nc(Nc3ccc(C4CCN(C)CC4)cc3)nc3ccsc23)c1 [Example 209] | < 0.05 | < 0.05 |
| C=CC(=O)Nc1cccc(Oc2nc(Nc3ccc(N4CCN(C(C)(C)C)CC4)cc3)nc3ccsc23)c1 [Example 12] | < 0.05 | < 0.05 |
| C=CC(=O)Nc1cccc(Oc2nc(Nc3ccc(OCCOC)cc3)nc3ccsc23)c1 [Example 61] | 0.05 to 0.1 | < 0.05 |
| C=CC(=O)Nc1cccc(Oc2nc(Nc3ccc(CN(C)C)cc3C)nc3ccsc23)c1 [Example 205] | < 0.05 | < 0.05 |
| C=CC(=O)Nc1cccc(Oc2nc(Nc3ccc4c(c3)CCCC(=O)N4C)nc3ccsc23)c1 [Example 108] | 0.05 to 0.1 | 0.05 to 0.1 |
| C=CC(=O)Nc1cccc(Nc2nc(Nc3ccc(C4CCCN(C)C4)cc3)nc3ccsc23)c1 (stereo not shown) [Example 210] | < 0.05 | < 0.05 |
| C=CC(=O)Nc1cccc(Oc2nc(Nc3ccc(OCCN4CCOCC4)c(F)c3)nc3ccsc23)c1 [Example 135] | 0.05 to 0.1 | < 0.05 |
| C=CC(=O)Nc1cccc(Oc2nc(Nc3ccc(CN4CCC4)cc3)nc3ccsc23)c1 [Example 175] | < 0.05 | < 0.05 |
| C=CC(=O)Nc1cccc(Oc2nc(Nc3ccc(C(C)=O)cc3)nc3ccsc23)c1 [Example 77] | < 0.05 | < 0.05 |
| C=CC(=O)Nc1cccc(Nc2nc(Nc3ccc(CCN(C)C)cc3)nc3ccsc23)c1 [Example 213] | 0.05 to 0.1 | < 0.05 |

| SMILES | GI50 [1] [µM] | GI50 [2] [µM] |
| --- | --- | --- |
| C=CC(=O)Nc1cccc(Oc2nc(Nc3ccc(N4CCC(n5ccnc5)CC4)cc3)nc3ccsc23)c1 [Example 46] | < 0.05 | < 0.05 |
| C=CC(=O)Nc1cccc(Oc2nc(Nc3ccc(N4CCN(CC(F)(F)F)CC4)cc3)nc3ccsc23)c1 [Example 16] | 0.05 to 0.1 | < 0.05 |
| C=CC(=O)Nc1cccc(Oc2nc(Nc3ccc(S(C)(=O)=O)cc3)nc3ccsc23)c1 [Example 69] | 0.05 to 0.1 | < 0.05 |
| C=CC(=O)Nc1cccc(Oc2nc(Nc3ccc(N4CCC(C(=O)N(C)C)CC4)cc3)nc3ccsc23)c1 [Example 45] | < 0.05 | < 0.05 |
| C=CC(=O)Nc1cccc(Nc2nc(Nc3ccc(OCCN(C)C)cc3)nc3ccsc23)c1 [Example 211] | < 0.05 | < 0.05 |
| C=CC(=O)Nc1cccc(Nc2nc(Nc3ccc(CCN4CCN(C)CC4)cc3)nc3ccsc23)c1 [Example 214] | 0.05 to 0.1 | < 0.05 |
| C=CC(=O)Nc1cccc(Oc2nc(Nc3ccc(N4CCC(N5CCCC5)CC4)c(Cl)c3)nc3ccsc23)c1 [Example 138] | < 0.05 | < 0.05 |
| C=CC(=O)Nc1cccc(Nc2nc(Nc3ccc(NC4CCN(C)CC4)c(F)c3)nc3ccsc23)c1 [Example 217] | < 0.05 | 0.05 to 0.1 |
| C=CC(=O)Nc1cccc(Sc2nc(Nc3ccc(C4CCN(C)CC4)c(F)c3)nc3ccsc23)c1 [Example 225] | < 0.05 | < 0.05 |
| C=CC(=O)Nc1cccc(Oc2nc(Nc3ccc(C(=O)N4CCN(S(=O)(=O)CC)CC4)c(Cl)c3)nc3ccsc23)c1 [Example 144] | < 0.05 | 0.05 to 0.1 |
| C=CC(=O)Nc1cccc(Oc2nc(Nc3ccc(C(=O)NC4CCN(C)CC4)c(OC)c3)nc3ccsc23)c1 [Example 118] | < 0.05 | 0.05 to 0.1 |
| C=CC(=O)Nc1cccc(Oc2nc(Nc3ccc(OCCN(CC)CC)c(F)c3)nc3ccsc23)c1 [Example 133] | < 0.05 | < 0.05 |
| C=CC(=O)Nc1cccc(Oc2nc(Nc3ccc(C(=O)NCCN4CCCC4)cc3OC)nc3ccsc23)c1 [Example 117] | < 0.05 | 0.05 to 0.1 |
| C=CC(=O)Nc1cccc(Oc2nc(Nc3ccc(OCCN(C)C)c(F)c3)nc3ccsc23)c1 [Example 132] | < 0.05 | < 0.05 |
| C=CC(=O)Nc1cccc(Oc2nc(Nc3ccc(N4CCN(CC(F)F)CC4)cc3)nc3ccsc23)c1 [Example 15] | < 0.05 | < 0.05 |
| C=CC(=O)Nc1cccc(Oc2nc(Nc3ccc(/C=C/CN4CCCCC4)cc3)nc3ccsc23)c1 [Example 102] | < 0.05 | 0.05 to 0.1 |
| C=CC(=O)Nc1cccc(Oc2nc(Nc3ccc(N4CCN(C)CC4)c(F)c3OC)nc3ccsc23)c1 [Example 6] | 0.05 to 0.1 | < 0.05 |
| C=CC(=O)Nc1cccc(Oc2nc(Nc3ccc(C4(N)CC4)cc3)nc3ccsc23)c1 [Example 160] | < 0.05 | < 0.05 |
| C=CC(=O)Nc1cccc(Oc2nc(Nc3ccc(N4CCC(N5CCOCC5)CC4)cc3)nc3ccsc23)c1 [Example 49] | < 0.05 | < 0.05 |
| C=CC(=O)Nc1cccc(Oc2nc(Nc3ccc(N4CCC(n5ccnc5)C4)cc3)nc3ccsc23)c1 (stereo not shown) [Example 35] | < 0.05 | < 0.05 |
